From the NIST ThermoML archive (doi:10.1016/j.fluid.2006.01.030)
± gives the expanded uncertainty stated by the source.

Assays:
[1] = Liquid
[2] = xn = mol fraction of the nth substance listed; conditions: Liquid, x1 = 1
[3] = 293.15 K, 100 kPa, Capillary tube (Ostwald / Ubbelohde) method
[4] = 293.15 K, 20000 kPa, Falling or rolling sphere viscometry
[5] = 293.15 K, 40000 kPa, Falling or rolling sphere viscometry
[6] = 293.15 K, 60000 kPa, Falling or rolling sphere viscometry
[7] = 293.15 K, 80000 kPa, Falling or rolling sphere viscometry
[8] = 293.15 K, 100000 kPa, Falling or rolling sphere viscometry
[9] = 313.15 K, 100 kPa, Capillary tube (Ostwald / Ubbelohde) method
[10] = 313.15 K, 20000 kPa, Falling or rolling sphere viscometry
[11] = 313.15 K, 40000 kPa, Falling or rolling sphere viscometry
[12] = 313.15 K, 60000 kPa, Falling or rolling sphere viscometry
[13] = 313.15 K, 80000 kPa, Falling or rolling sphere viscometry
[14] = 313.15 K, 100000 kPa, Falling or rolling sphere viscometry
[15] = 333.15 K, 100 kPa, Capillary tube (Ostwald / Ubbelohde) method
[16] = 333.15 K, 20000 kPa, Falling or rolling sphere viscometry
[17] = 333.15 K, 40000 kPa, Falling or rolling sphere viscometry
[18] = 333.15 K, 60000 kPa, Falling or rolling sphere viscometry
[19] = 333.15 K, 80000 kPa, Falling or rolling sphere viscometry
[20] = 333.15 K, 100000 kPa, Falling or rolling sphere viscometry
[21] = 353.15 K, 20000 kPa, Falling or rolling sphere viscometry
[22] = 353.15 K, 40000 kPa, Falling or rolling sphere viscometry
[23] = 353.15 K, 60000 kPa, Falling or rolling sphere viscometry
[24] = 353.15 K, 80000 kPa, Falling or rolling sphere viscometry
[25] = 353.15 K, 100000 kPa, Falling or rolling sphere viscometry

For CCO [ethanol], which viscosity [1, 3] is on record?
Its viscosity is 1.194 ± 0.025 mPa·s.

What about the viscosity [1, 4] of the same compound?
The viscosity was 1.344 ± 0.058 mPa·s.

And the viscosity [1, 5]?
The viscosity was 1.494 ± 0.065 mPa·s.

What about the viscosity [1, 6] of the same compound?
Its viscosity is 1.647 ± 0.071 mPa·s.

What about the viscosity [1, 7] of the same compound?
The viscosity was 1.797 ± 0.077 mPa·s.

And the viscosity [1, 8]?
Its viscosity is 1.955 ± 0.084 mPa·s.

And the viscosity [1, 9]?
The viscosity was 0.826 ± 0.017 mPa·s.

What about the viscosity [1, 10] of the same compound?
Its viscosity is 0.948 ± 0.042 mPa·s.

And the viscosity [1, 11]?
The viscosity was 1.059 ± 0.047 mPa·s.

And the viscosity [1, 12]?
The viscosity was 1.171 ± 0.052 mPa·s.

What about the viscosity [1, 13] of the same compound?
The viscosity was 1.282 ± 0.056 mPa·s.

And the viscosity [1, 14]?
Its viscosity is 1.392 ± 0.061 mPa·s.

What about the viscosity [1, 15] of the same compound?
Its viscosity is 0.59 ± 0.013 mPa·s.

What about the viscosity [1, 16] of the same compound?
Its viscosity is 0.683 ± 0.03 mPa·s.

And the viscosity [1, 17]?
Its viscosity is 0.769 ± 0.034 mPa·s.

And the viscosity [1, 18]?
The viscosity was 0.851 ± 0.037 mPa·s.

What about the viscosity [1, 19] of the same compound?
Its viscosity is 0.934 ± 0.041 mPa·s.

And the viscosity [1, 20]?
Its viscosity is 1.015 ± 0.044 mPa·s.

And the viscosity [1, 21]?
Its viscosity is 0.51 ± 0.022 mPa·s.

What about the viscosity [1, 22] of the same compound?
Its viscosity is 0.574 ± 0.025 mPa·s.

And the viscosity [1, 23]?
Its viscosity is 0.636 ± 0.028 mPa·s.

What about the viscosity [1, 24] of the same compound?
The viscosity was 0.699 ± 0.031 mPa·s.

And the viscosity [1, 25]?
The viscosity was 0.763 ± 0.033 mPa·s.

Which viscosity [1, 3] does the source give for CCCCCCC [heptane] here?
Its viscosity is 0.41 ± 0.009 mPa·s.

What about the viscosity [1, 4] of the same compound?
The viscosity was 0.509 ± 0.021 mPa·s.

And the viscosity [1, 5]?
Its viscosity is 0.604 ± 0.025 mPa·s.

What about the viscosity [1, 6] of the same compound?
Its viscosity is 0.706 ± 0.03 mPa·s.

What about the viscosity [1, 7] of the same compound?
Its viscosity is 0.817 ± 0.034 mPa·s.

And the viscosity [1, 8]?
Its viscosity is 0.937 ± 0.039 mPa·s.

What about the viscosity [1, 9] of the same compound?
Its viscosity is 0.333 ± 0.007 mPa·s.

And the viscosity [1, 10]?
The viscosity was 0.408 ± 0.017 mPa·s.

And the viscosity [1, 11]?
The viscosity was 0.487 ± 0.02 mPa·s.

What about the viscosity [1, 12] of the same compound?
Its viscosity is 0.57 ± 0.024 mPa·s.

And the viscosity [1, 13]?
Its viscosity is 0.658 ± 0.028 mPa·s.

And the viscosity [1, 14]?
The viscosity was 0.751 ± 0.032 mPa·s.

And the viscosity [1, 15]?
The viscosity was 0.276 ± 0.006 mPa·s.

What about the viscosity [1, 16] of the same compound?
The viscosity was 0.336 ± 0.014 mPa·s.

What about the viscosity [1, 17] of the same compound?
Its viscosity is 0.402 ± 0.017 mPa·s.

What about the viscosity [1, 18] of the same compound?
Its viscosity is 0.472 ± 0.02 mPa·s.

What about the viscosity [1, 19] of the same compound?
Its viscosity is 0.546 ± 0.023 mPa·s.

And the viscosity [1, 20]?
Its viscosity is 0.623 ± 0.026 mPa·s.

What about the viscosity ([1]; 353.15 K, 100 kPa, Capillary tube (Ostwald / Ubbelohde) method) of the same compound?
The viscosity was 0.232 ± 0.005 mPa·s.

What about the viscosity [1, 21] of the same compound?
The viscosity was 0.289 ± 0.012 mPa·s.

What about the viscosity [1, 22] of the same compound?
Its viscosity is 0.346 ± 0.014 mPa·s.

And the viscosity [1, 23]?
The viscosity was 0.401 ± 0.017 mPa·s.

And the viscosity [1, 24]?
The viscosity was 0.458 ± 0.019 mPa·s.

What about the viscosity [1, 25] of the same compound?
The viscosity was 0.521 ± 0.022 mPa·s.

For CCO [ethanol] + CCCCCCC, which viscosity [2, 3] is on record?
The viscosity was 1.194 ± 0.025 mPa·s.

What about the viscosity [2, 4] of the same compound?
The viscosity was 1.344 ± 0.058 mPa·s.

And the viscosity [2, 5]?
Its viscosity is 1.494 ± 0.065 mPa·s.

And the viscosity [2, 6]?
The viscosity was 1.647 ± 0.071 mPa·s.

And the viscosity [2, 7]?
The viscosity was 1.797 ± 0.077 mPa·s.

And the viscosity [2, 8]?
Its viscosity is 1.955 ± 0.084 mPa·s.

What about the viscosity [2, 9] of the same compound?
The viscosity was 0.826 ± 0.017 mPa·s.

And the viscosity [2, 10]?
The viscosity was 0.948 ± 0.042 mPa·s.

What about the viscosity [2, 11] of the same compound?
The viscosity was 1.059 ± 0.047 mPa·s.

And the viscosity [2, 12]?
The viscosity was 1.171 ± 0.052 mPa·s.

And the viscosity [2, 13]?
The viscosity was 1.282 ± 0.056 mPa·s.

And the viscosity [2, 14]?
The viscosity was 1.392 ± 0.061 mPa·s.

And the viscosity [2, 15]?
The viscosity was 0.59 ± 0.013 mPa·s.

And the viscosity [2, 16]?
Its viscosity is 0.683 ± 0.03 mPa·s.

What about the viscosity [2, 17] of the same compound?
The viscosity was 0.769 ± 0.034 mPa·s.

And the viscosity [2, 18]?
The viscosity was 0.851 ± 0.037 mPa·s.

And the viscosity [2, 19]?
Its viscosity is 0.934 ± 0.041 mPa·s.

What about the viscosity [2, 20] of the same compound?
Its viscosity is 1.015 ± 0.044 mPa·s.

And the viscosity [2, 21]?
Its viscosity is 0.51 ± 0.022 mPa·s.

What about the viscosity [2, 22] of the same compound?
The viscosity was 0.574 ± 0.025 mPa·s.

And the viscosity [2, 23]?
Its viscosity is 0.636 ± 0.028 mPa·s.

And the viscosity [2, 24]?
Its viscosity is 0.699 ± 0.031 mPa·s.

And the viscosity [2, 25]?
The viscosity was 0.763 ± 0.033 mPa·s.
